Patent US7135162B2, “Agent for diagnosing and treating malignant tumors” (Cosmo Research Institute, priority 1997, dated 2006)
Where “and” joins values, the source holds several entries; their conditions need not be identical. Equal values may be shown once.

Tested on: human ovarian cancer cisplatin-resistant cultured cell A2480CP
Assay: ^13C-NMR of excised cancer cells and femoral muscle after intravenous administration to tumour-bearing nude mice
Details: for ^13C Area integrated value, Cancer cells: 300 mg/kg, caudal vein, peak areas 90 to 160 ppm, relative to 100 = first animal after 8 hours, two animals
Description: Nude mice (female BALB Cnu/nu, about 8 mm in cancer diameter) were used after 3 weeks of the transplantation of 2×10^6 cells/animal of human ovarian cancer cisplatin-resistant cultured cell A2480CP to the right-side body subcutaneously. Preparation of ^13C-labeled 5-aminolevulinic acid aqueous solution:
5-Aminolevulinic acid hydrochloride in which the 5-position carbon was replaced with ^13C (Production Example 4) was used. The 5-aminolevulinic acid hydrochloride in which the 5-position carbon was replaced with ^13C was dissolved in distilled water at a ratio of 25 g/L, and the solution was neutralized to pH 7 with sodium hydroxide.
The thus neutralized solution was sterilized by immediately passing through a 0.22 μm filter and administered from the mouse caudal vein at a ratio of 12 μl per g body weight. This dose corresponds to 300 mg administration of 5-aminolevulinic acid hydrochloride per 1 kg body weight. After 2, 4 and 8 hours of the administration, mice were sacrificed and subjected to bloodletting, and then the cancer cells and femoral part were excised and packed in 10 mmφ NMR sample tubes to the same volume to measure ^13C-NMR by super-conductive NMR, JNM-A400 manufactured by JEOL, at an observation frequency of 100.50 MHz using a proton decoupling method.
After the measurement, peak areas of from 90 to 160 ppm were integrated, and relative values were calculated based on the value 100 of the first animal after 8 hours of the administration. The test was carried out using two animals for each condition.

Q: `Cl.N[13CH2]C(=O)CCC(=O)O` [^13C-labeled 5-aminolevulinic acid, 5-Aminolevulinic acid hydrochloride in which the 5-position carbon was replaced with ^13C] was tested. Which “^13C Area integrated value, Cancer cells” value (2 hours after administration) did it give?
A: 19 and 22

Q: And the “^13C Area integrated value, Cancer cells” value (4 hours after administration)?
A: 89 and 73

Q: What about the “^13C Area integrated value, Cancer cells” value (8 hours after administration) of the same molecule?
A: 100 and 87

Q: And the “existing frequency of ^13C, cancer cells versus muscle” value (summary of Table 3, 2, 4 and 8 hours after administration)?
A: higher in the cancer cells than in the muscle
